Patent US20240024273A1, “TOPICAL ADMINISTRATION OF 2-(DIETHYLAMINO)ETHYL 2-(4-ISOBUTYLPHENYL)PROPRIONATE FOR TREATMENT OF DISEASES” (TECHFIELDS PHARMA CO., LTD., priority 2020, published 2024)

Tested on: Mild to Moderate Osteoarthritis of the Knee
Test: Phase 2 study: WOMAC (VAS) pain subscale score, target knee
Type: in vivo, human
Conditions: for Change of WOMAC pain score from baseline (±SEM) / Percentage of improvement from baseline, WOMAC pain score: all patients taken as active
From the text: This is a Phase 2, multicenter, randomized, double blind (within dose), placebo controlled, parallel group, proof of concept, and dose range finding study to evaluate the efficacy, safety, and PK of 2-(diethylamino)ethyl 2-(4-isobutylphenyl)propionate hydrochloride spray in adult subjects with clinically symptomatic mild to moderate OA of the knee. For subjects with bilateral knee pain, both knees will be treated, but the most symptomatic knee (i.e., the most painful knee as measured by the Western Ontario and McMaster University Osteoarthritis Index [WOMAC® 3.1] pain subscale score at Screening) will be designated as the target knee for efficacy analyses. For subjects with unilateral knee pain, only the symptomatic (target) knee will be treated.
After a Screening Period of up to 3 weeks and radiographic evaluation of the target knee joint space, a subject will be randomly assigned to 1 of 3 treatment groups in a 1:1:1 ratio with a 2:1 ratio of active:placebo within each treatment group (ie, 2 subjects to active treatment and 1 subject to placebo): • Group A: 8.75 mg 2-(diethylamino)ethyl 2-(4-isobutylphenyl)propionate/knee (2 sprays/knee, one spray to the medial surface and one spray to the lateral surface of the knee), twice daily (BID, approximately every 12 hours; n=50) or placebo (2 sprays/knee), BID (approximately every 12 hours; n=25) for a total of 4 sprays per knee per day; • Group B: 17.5 mg 2-(diethylamino)ethyl 2-(4-isobutylphenyl)propionate/knee (4 sprays/knee, one spray to the medial surface and one spray to the lateral surface of the knee, and one spray to front and one spray to the back of the knee), BID (approximately every 12 hours; n=50) or placebo (4 sprays/knee), BID (approximately every 12 hours; n=25) for a total of 8 sprays per knee per day; • Group C: 35 mg 2-(diethylamino)ethyl 2-(4-isobutylphenyl)propionate/knee (8 sprays/knee, each spray is to be applied to a different non-overlapping area around the knee, and the areas are to be uniformly distributed around the knee), BID (approximately every 12 hours; n=50) or placebo (8 sprays/knee), BID (approximately every 12 hours; n=25) for a total of 16 sprays per knee per day.
The VAS version of the WOMAC will be used for the Primary and Secondary Efficacy Endpoints. Efficacy endpoints will be assessed at Screening and Baseline (Day 1) and at the Week 2, Week 4, Week 8, and Week 12/EOS visits.
The Primary Efficacy Endpoint is the change from Baseline in the WOMAC (VAS) pain subscale score for the target knee at […] of treatment.
3.9.2. Secondary Efficacy Endpoints: • 1. Change from Baseline in the WOMAC (VAS) pain subscale score for the target knee at 2, 4, and 8 weeks of treatment; • 2. Change from Baseline in the WOMAC (VAS) stiffness subscale scores for the target knee and WOMAC (VAS) functional ability subscale scores at 2, 4, 8, and 12 weeks of treatment; • 3. Change from Baseline in the overall WOMAC (VAS) score at 2, 4, 8, and 12 weeks of treatment.
The Primary Efficacy Endpoint is change from Baseline in the WOMAC (VAS) pain subscale score for the target knee at 4 weeks of treatment, and will be analyzed using an analysis of covariance (ANCOVA). Treatment will be included as a fixed class effect and WOMAC Baseline pain subscale score as covariates. The primary comparisons of interest will be the difference between active Group A (8.75 mg 2-(diethylamino)ethyl 2-(4-isobutylphenyl)propionate/knee) and combined placebo, active Group B (17.5 mg 2-(diethylamino)ethyl 2-(4-isobutylphenyl)propionate/knee) and combined placebo, and active Group C (35 mg 2-(diethylamino)ethyl 2-(4-isobutylphenyl)propionate/knee) and combined placebo. […]

[1] = 8.75 mg/knee (BID), Follow up (week 13, day 91)
[2] = 8.75 mg/knee (BID), Week 2 (day 14)
[3] = 8.75 mg/knee (BID), Week 4 (day 28)
[4] = 8.75 mg/knee (BID), Week 8 (day 56)
[5] = 8.75 mg/knee (BID), Week 12 (day 84)
[6] = 17.5 mg/knee (BID), Follow up (week 13, day 91)
[7] = 17.5 mg/knee (BID), Week 2 (day 14)
[8] = 17.5 mg/knee (BID), Week 4 (day 28)
[9] = 17.5 mg/knee (BID), Week 8 (day 56)
[10] = 17.5 mg/knee (BID), Week 12 (day 84)
[11] = 35 mg/knee (BID), Follow up (week 13, day 91)
[12] = 35 mg/knee (BID), Week 2 (day 14)
[13] = 35 mg/knee (BID), Week 4 (day 28)
[14] = 35 mg/knee (BID), Week 8 (day 56)
[15] = 35 mg/knee (BID), Week 12 (day 84)

CCN(CC)CCOC(=O)C(C)c1ccc(CC(C)C)cc1 (stereo not drawn) [2-(diethylamino)ethyl 2-(4-isobutylphenyl)propionate]
Change of WOMAC pain score from baseline (±SEM), adjusted by […] of the testing drug amount [1]: −34.5(±5.6) mm
Percentage of improvement from baseline, WOMAC pain score, adjusted by […] of the testing drug amount [1]: −57.6%
Change of WOMAC pain score from baseline (±SEM) [1]: −20.1(±3.25) mm
Percentage of improvement from baseline, WOMAC pain score [1]: −33.6%
Change of WOMAC pain score from baseline (±SEM), adjusted by […] of the testing drug amount [2]: −19.2(±4.1) mm
Percentage of improvement from baseline, WOMAC pain score, adjusted by […] of the testing drug amount [2]: −32.1%
Change of WOMAC pain score from baseline (±SEM) [2]: −11.2(±2.39) mm
Percentage of improvement from baseline, WOMAC pain score [2]: −18.7%
Change of WOMAC pain score from baseline (±SEM), adjusted by […] of the testing drug amount [3]: −29.2(±4.8) mm
Percentage of improvement from baseline, WOMAC pain score, adjusted by […] of the testing drug amount [3]: −48.7%
Change of WOMAC pain score from baseline (±SEM) [3]: −17.0(±2.79) mm
Percentage of improvement from baseline, WOMAC pain score [3]: −28.4%
Change of WOMAC pain score from baseline (±SEM), adjusted by […] of the testing drug amount [4]: −36.7(±4.8) mm
Percentage of improvement from baseline, WOMAC pain score, adjusted by […] of the testing drug amount [4]: −61.4%
Change of WOMAC pain score from baseline (±SEM) [4]: −21.4(±2.81) mm
Percentage of improvement from baseline, WOMAC pain score [4]: −35.8%
Change of WOMAC pain score from baseline (±SEM), adjusted by […] of the testing drug amount [5]: −37.0(±5.4) mm
Percentage of improvement from baseline, WOMAC pain score, adjusted by […] of the testing drug amount [5]: −61.9%
Change of WOMAC pain score from baseline (±SEM) [5]: −21.6(±3.13) mm
Percentage of improvement from baseline, WOMAC pain score [5]: −36.1%
Change of WOMAC pain score from baseline (±SEM), adjusted by […] of the testing drug amount [6]: −37.9(±5.2) mm
Percentage of improvement from baseline, WOMAC pain score, adjusted by […] of the testing drug amount [6]: −62.1%
Change of WOMAC pain score from baseline (±SEM) [6]: −22.1(±3.01) mm
Percentage of improvement from baseline, WOMAC pain score [6]: −36.2%
Change of WOMAC pain score from baseline (±SEM), adjusted by […] of the testing drug amount [7]: −25.7(±3.7) mm
Percentage of improvement from baseline, WOMAC pain score, adjusted by […] of the testing drug amount [7]: −42.2%
Change of WOMAC pain score from baseline (±SEM) [7]: −15.0(±2.18) mm
Percentage of improvement from baseline, WOMAC pain score [7]: −24.6%
Change of WOMAC pain score from baseline (±SEM), adjusted by […] of the testing drug amount [8]: −35.2(±4.8) mm
Percentage of improvement from baseline, WOMAC pain score, adjusted by […] of the testing drug amount [8]: −57.6%
Change of WOMAC pain score from baseline (±SEM) [8]: −20.5(±2.79) mm
Percentage of improvement from baseline, WOMAC pain score [8]: −33.6%
Change of WOMAC pain score from baseline (±SEM), adjusted by […] of the testing drug amount [9]: −43.1(±4.9) mm
Percentage of improvement from baseline, WOMAC pain score, adjusted by […] of the testing drug amount [9]: −70.5%
Change of WOMAC pain score from baseline (±SEM) [9]: −25.1(±2.88) mm
Percentage of improvement from baseline, WOMAC pain score [9]: −41.1%
Change of WOMAC pain score from baseline (±SEM), adjusted by […] of the testing drug amount [10]: −45.5(±5.0) mm
Percentage of improvement from baseline, WOMAC pain score, adjusted by […] of the testing drug amount [10]: −74.4%
Change of WOMAC pain score from baseline (±SEM) [10]: −26.5(±2.94) mm
Percentage of improvement from baseline, WOMAC pain score [10]: −43.4%
Change of WOMAC pain score from baseline (±SEM), adjusted by […] of the testing drug amount [11]: −41.2(±5.3) mm
Percentage of improvement from baseline, WOMAC pain score, adjusted by […] of the testing drug amount [11]: −69.5%
Change of WOMAC pain score from baseline (±SEM) [11]: −24.0(±3.09) mm
Percentage of improvement from baseline, WOMAC pain score [11]: −40.5%
Change of WOMAC pain score from baseline (±SEM), adjusted by […] of the testing drug amount [12]: −21.6(±4.0) mm
Percentage of improvement from baseline, WOMAC pain score, adjusted by […] of the testing drug amount [12]: −36.5%
Change of WOMAC pain score from baseline (±SEM) [12]: −12.6(±2.33) mm
Percentage of improvement from baseline, WOMAC pain score [12]: −21.3%
Change of WOMAC pain score from baseline (±SEM), adjusted by […] of the testing drug amount [13]: −30.4(±4.4) mm
Percentage of improvement from baseline, WOMAC pain score, adjusted by […] of the testing drug amount [13]: −51.2%
Change of WOMAC pain score from baseline (±SEM) [13]: −17.7(±2.54) mm
Percentage of improvement from baseline, WOMAC pain score [13]: −29.9%
Change of WOMAC pain score from baseline (±SEM), adjusted by […] of the testing drug amount [14]: −38.1(±5.1) mm
Percentage of improvement from baseline, WOMAC pain score, adjusted by […] of the testing drug amount [14]: −64.3%
Change of WOMAC pain score from baseline (±SEM) [14]: −22.2(±2.97) mm
Percentage of improvement from baseline, WOMAC pain score [14]: −37.5%
Change of WOMAC pain score from baseline (±SEM), adjusted by […] of the testing drug amount [15]: −43.6(±5.2) mm
Percentage of improvement from baseline, WOMAC pain score, adjusted by […] of the testing drug amount [15]: −73.6%
Change of WOMAC pain score from baseline (±SEM) [15]: −25.4(±3.04) mm
Percentage of improvement from baseline, WOMAC pain score [15]: −42.9%
